In data set [1] the target is T. vaginalis Tv20S proteasome β1 subunit (Trichomonas vaginalis, UniProt A2E7Z2). As to the kind of experiment: In vitro proteasome assay, Ac-RYFD-amc substrate. In kind it is biochemical. Conditions: recombinant Tv20S, mean ± SD of three experiments. The method, then:
(§1) The T. vaginalis proteasome was expressed in recombinant form as previously described ([27]). Briefly, Spodoptera frugiperda cells were co-infected with three baculovirus vectors carrying the T. vaginalis genes for the 7 α-subunits, 7 β-subunits, and the Ump-1 chaperone, respectively. The resulting proteasome complex was purified from cell lysates via streptavidin column and size exclusion chromatography and stored at −80°C. Purified human c20S proteasome and recombinant human proteasome activator PA28α ([21]) were obtained from Bio-Techne and stored at −80°C. Dilutions of the test agents were transferred to 384-well plates (Greiner Bio-One) in triplicate wells using an Echo 650 Acoustic Liquid Handler (Beckman Coulter). Six replicate plates were prepared for each compound for testing with three T. vaginalis-optimized substrates and three human-optimized substrates. After dispensing, plates were sealed and stored at −20°C. The following fluorescent substrates and final substrate concentrations were used to assay subunit activities of the T. vaginalis proteasome (Tv20S) ([28]) or the human constitutive proteasome (c20S) ([19], [52]): Ac-RYFD-amc (Genscript) at 100 µM for Tv20S β1 subunit, Ac-FRSR-amc (Genscript) at 20 µM for Tv20S β2 subunit, Ac-GWYL-amc (Genscript) at 20 µM for Tv20S β5 subunit, z-LLE-amc (R&D Systems) at 80 µM for c20S β1 subunit, z-VLR-amc (AdipoGen Life Sciences) at 30 µM for c20S β2 subunit, and suc-LLVY-amc (R&D Systems) at 65 µM for c20S β5 subunit. Substrates and proteasomes were diluted in an assay buffer consisting of HEPES pH 7.5 and 1 mM DTT. For the human proteasome assays, 2 nM c20S was incubated at room temperature with 200 nM PA28α for 1 h to activate the complex prior to addition to the 384-well plates containing the substrate-inhibitor mixtures. […] Both proteasomes were added to the wells at a 1 nM final assay concentration. Fluorescence was measured over 4 h at 360 nm excitation and 460 nm emission on a Biotek Synergy HTX plate reader.

A further data set concerns human cell line HeLa. The experiment in a line: 48 h cytotoxicity (growth and viability) assay in mammalian cells. In kind it is cell-based. The method, then:
The following T. vaginalis strains were used: F1623 ([50]), G3 (ATCC PRA-98), and LA1 ([25]). Parasites were grown at 37°C in TYM Diamond’s medium supplemented with 180 µM ferrous ammonium sulfate ([51]). Drug susceptibility assays were performed as described previously ([23]) with several minor modifications. Briefly, 10 mM stocks of the test compounds in DMSO were serially diluted 1:3 using an Echo 650 Acoustic Liquid Handler (Beckman Coulter). Subsequently, trophozoites (5 × 10^3/well) in TYM modified media were added to the wells in 384-well plates, and cultures were incubated for 24 h at 37°C under anaerobic conditions (AnaeroPack-Anaero System; Remel). For testing in mammalian cells, the following cell lines were used: Human cervical cancer cells HeLa (ATCC CCL-2), non-transformed mouse fibroblast cell line 3T3-L1 (ATCC CL-173), normal monkey kidney epithelial cell line Vero (ATCC CCL-81), and human B lymphoma cells Raji (ATCC CCL-86). […] Growth and viability of T. vaginalis and mammalian cells were determined with an ATP assay by adding the BacTiter-Glo Microbial Cell Viability Assay reagent (Promega) directly to the wells and measuring ATP-dependent luminescence in a microplate reader. […] Experiments were repeated at least three times, and the mean and SEM of the pGI50 values were calculated.

Data set [2] deals with T. vaginalis Tv20S proteasome β5 subunit (Trichomonas vaginalis, UniProt A2DD57+A2F716). As to the kind of experiment: biochemical. In kind it is biochemical. Conditions: recombinant Tv20S, mean ± SD of three experiments. The procedure: as §1
The target in data set [3] is T1, Human c20S proteasome β2 subunit (Homo sapiens, UniProt P49720+Q99436).
T1 construct: purchased Bio-Techne
The experiment in a line: In vitro proteasome assay, z-VLR-amc substrate. The format is biochemical. Particulars: purified human c20S with PA28α, mean ± SD. The procedure:
as §1

The test system of data set [4] is T. vaginalis Tv20S proteasome β2 subunit. As to the kind of experiment: In vitro proteasome assay, Ac-FRSR-amc substrate. Conditions: recombinant Tv20S, mean ± SD of three experiments. The format is biochemical, Trichomonas vaginalis. The method, then:
as §1

For data set [5], the target named is T2, Human c20S proteasome β5 subunit (Homo sapiens, UniProt P20618+P28074).
T2 construct: purchased Bio-Techne
As to the kind of experiment: In vitro proteasome assay, suc-LLVY-amc substrate. In kind it is biochemical. Particulars: purified human c20S with PA28α, mean ± SD. The procedure: as §1

Data set [6] has as its system T. vaginalis strain F1623. As to the kind of experiment: 24 h growth and survival assay (ATP luminescence, GI50). In kind it is cell-based, Trichomonas vaginalis. The method, then:
The following T. vaginalis strains were used: F1623 ([50]), G3 (ATCC PRA-98), and LA1 ([25]). […] Drug susceptibility assays were performed as described previously ([23]) with several minor modifications. Briefly, 10 mM stocks of the test compounds in DMSO were serially diluted 1:3 using an Echo 650 Acoustic Liquid Handler (Beckman Coulter). Subsequently, trophozoites (5 × 10^3/well) in TYM modified media were added to the wells in 384-well plates, and cultures were incubated for 24 h at 37°C under anaerobic conditions (AnaeroPack-Anaero System; Remel). For testing in mammalian cells, the following cell lines were used: Human cervical cancer cells HeLa (ATCC CCL-2), non-transformed mouse fibroblast cell line 3T3-L1 (ATCC CL-173), normal monkey kidney epithelial cell line Vero (ATCC CCL-81), and human B lymphoma cells Raji (ATCC CCL-86). Test compounds were serially diluted (1:3) and added to mammalian cell cultures grown in 384-well plates, and cultures were incubated for 48 h at 37°C in 5% CO2, 95% air. Growth and viability of T. vaginalis and mammalian cells were determined with an ATP assay by adding the BacTiter-Glo Microbial Cell Viability Assay reagent (Promega) directly to the wells and measuring ATP-dependent luminescence in a microplate reader. […] Experiments were repeated at least three times, and the mean and SEM of the pGI50 values were calculated.

In data set [7] the target is T3, Human c20S proteasome β1 subunit (Homo sapiens, UniProt P28072+Q99436).
T3 construct: purchased Bio-Techne
As to the kind of experiment: In vitro proteasome assay, z-LLE-amc substrate. In kind it is biochemical. Particulars: purified human c20S with PA28α, mean ± SD. The method, then: as §1

Details of data set [8]: method as in PMID 30380863, PMID 36969170. Particulars: at therapeutic concentrations; cited from earlier work.

The structures appear in SMILES notation. Entries after “also recorded” stand apart in the source; their conditions may differ.

Chain of T. vaginalis Tv20S proteasome β1 subunit (A2E7Z2 entry or part of it): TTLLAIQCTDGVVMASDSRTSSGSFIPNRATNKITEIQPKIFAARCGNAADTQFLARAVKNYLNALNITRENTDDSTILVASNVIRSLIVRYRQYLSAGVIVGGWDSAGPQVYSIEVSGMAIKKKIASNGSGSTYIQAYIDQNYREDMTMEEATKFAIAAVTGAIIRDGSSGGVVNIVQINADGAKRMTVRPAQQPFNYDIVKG
Chain of T. vaginalis Tv20S proteasome β5 subunit (A2DD57 entry or part of it): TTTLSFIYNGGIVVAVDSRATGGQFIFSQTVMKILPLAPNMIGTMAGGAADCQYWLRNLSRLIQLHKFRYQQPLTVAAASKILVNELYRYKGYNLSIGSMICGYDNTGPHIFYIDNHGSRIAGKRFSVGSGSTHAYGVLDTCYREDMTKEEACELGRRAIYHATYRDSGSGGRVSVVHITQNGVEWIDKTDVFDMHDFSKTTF
Chain of T. vaginalis Tv20S proteasome β5 subunit (A2F716 entry or part of it): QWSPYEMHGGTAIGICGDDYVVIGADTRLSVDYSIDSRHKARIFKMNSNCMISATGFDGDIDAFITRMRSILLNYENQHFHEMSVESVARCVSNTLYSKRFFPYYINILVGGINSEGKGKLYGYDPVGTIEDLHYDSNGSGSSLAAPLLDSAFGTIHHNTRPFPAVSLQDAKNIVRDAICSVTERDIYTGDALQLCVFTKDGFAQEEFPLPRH

Take `C=C(C)C(=O)[C@H](Cc1ccccc1)NC(=O)[C@H](Cc1ccc(OC)cc1)NC(=O)[C@H](C)NC(=O)C1=C(C)c2ccccc2C1` [compound 104]: in [1], the “Tv20S proteasome inhibition of β1 subunit (IC50)” value is recorded as “did not inhibit; also recorded: No inhibition”. Besides, in the data set on human cell line HeLa, the “growth inhibitory activity against human cells (in words)” value is listed as “only minimally inhibitory”. In addition, the “Tv20S proteasome inhibition of β5 subunit (IC50)” value in data set [2] was “did not inhibit; also recorded: No inhibition”. Moreover, in [3], the “Human c20S proteasome inhibition of β2 subunit (IC50)” value is “no inhibitory activity; also recorded: No inhibition”. Moreover, the “Tv20S proteasome inhibition of β2 subunit (IC50)” value in [4] was “did not inhibit; also recorded: No inhibition”. Besides, in data set [5], the “Human c20S proteasome inhibition of β5 subunit (IC50)” value is “no inhibitory activity; also recorded: No inhibition”. The “growth inhibitory activity against T. vaginalis (in words)” value in data set [6] (F1623) is “only minimally inhibitory”. In addition, the “SI (ratio of GI50 in HeLa cells over GI50 in T. vaginalis)” value in [6] (T. vaginalis F1623 vs human HeLa cells) was determined as 1.05. In addition, in data set [7], the “Human c20S proteasome inhibition of β1 subunit (IC50)” value is “no inhibitory activity; also recorded: No inhibition”.
On to `COc1ccc([C@@H](O)[C@H](NC(=O)[C@H](C)NC(=O)CN2CCOCC2)C(=O)N[C@@H](CC2=CCCC2)C(=O)[C@@]2(C)CO2)cc1` [zetomipzomib, (2 S,3 R)-N-((S)-3-(Cyclopent-1-en-1-yl)-1-((R)-2-methyloxiran-2-yl)-1-oxopropan-2-yl)-3-hydroxy-3-(4-methoxyphenyl)-2-((S)-2-(2-morpholinoacetamido)propanamido)propenamide], for which the “effect on T-dependent antibody responses or number of circulating lymphocytes” value in data set [8] was “did not significantly affect”.

Values taken from article PMC12691669, “Inhibitors of the 20S proteasome β5 subunit as potent and selective agents against Trichomonas vaginalis” (Antimicrobial Agents and Chemotherapy, 2025).
